Assay results: patent US5849888A, “Azoamide compound” (Wako Pure Chemical Industries, Ltd., priority 1996, dated 1998)

Tests used:
[1] = in words, cited from earlier work; for solubility in an organic solvent: organic solvent used in solution polymerization of an oily soluble monomer
[2] = Solubility of azoamide compound in 100 g of solvent at 25° C. (Table 1); format: physicochemical; conditions: for Solubility in ethyl acetate: in 100 g of ethyl acetate; for Solubility in toluene: in 100 g of toluene
From the text: *^) Solubility of each azoamide compound in 100 g of the solvent at
A polymerization initiator having solubility of generally 2% or more, preferably 5% or more has high applicability, and it can be found from the above Table 1 that any of the azoamide compounds of the present invention is suitable for a polymerization reaction using an organic solvent.

[3] = Polymerization of styrene at 110° C. with azoamide initiator (Experiment 2); conditions: 4×10^-4 M initiator
Description: (§1) 5 ml of styrene containing a 4×10^-4 M of azoamide compound which is obtained example 1, 3, or 6 were placed in individual glass tubes. After deairing, the tubes were sealed under reduced pressure. Each tube was placed into the thermostat adjusted at 110° C. to carry out the polymerization. The tube was took out from the thermostat after predetermined time, cooled under ice water immediately to stop polymerization. The reaction solution was poured into methanol to deposit and precipitate the obtained polymer. The precipitate was recovered by filtration, and dried at 60° C. under reduced pressure for 8 hours. The weight of the polymer obtained was measured and the conversion was calculated.

[4] = Half-life test (thermal decomposition in ethyl benzene, 10-hour half life temperature); format: physicochemical; conditions: 1% (w/w) solution in ethyl benzene; calculated by Arrhenius equation
Description: Experiment 1. Half-life test
(§2) 1 Percent (w/w) solution of each azoamide compound obtained in Examples 1 to 7 in ethyl benzene is prepared. A concentration of the azoamide compound is measured in a thermostat at pre-determined interval by 1 hour unit and a coefficient of decomposition rate constant at each temperature is obtained and then the temperature for 10 -hour half life is calculated on the basis of the coefficient by Arrhenius equation.

[5] = Decomposition rate constant at 110° C. (Table 3); format: physicochemical
Description: as §2, §1

[6] = listed as 2,2'-azobis (N-methyl-2-methyl propionamide)

Row | SMILES | Solubility in ethyl acetate [2] | Solubility in ethyl acetate [2, 6] | Solubility in toluene [2] | Solubility in toluene [2, 6] | temperature for 10-hour half life [4] [°C] | decomposition rate constant [5] [s⁻¹] | solubility in water [1] | solubility in an organic solvent [1] | Conversion ([3]; polymerization time 1 h) [%] | Conversion ([3]; polymerization time 2 h) [%] | Conversion ([3]; polymerization time 3 h) [%] | Conversion ([3]; polymerization time 4 h) [%] | Conversion ([3]; polymerization time 6 h) [%] | Conversion ([3]; polymerization time 8 h) [%]
1 | CC(C)(N=NC(C)(C)C(N)=O)C(N)=O [2,2'-azobis (2-methylpropionamide)] | – | – | – | – | – | – | water-soluble | poor soluble | – | – | – | – | – | –
2 | CC(C)(N=NC(C)(C)C(=O)NCO)C(=O)NCO [2,2'-azobis [2-methyl-N-(hydroxymethyl)-propionamide]] | – | – | – | – | – | – | water-soluble | poor soluble | – | – | – | – | – | –
3 | CNC(=O)C(C)(C)N=NC(C)(C)C(=O)NC [Comparative example, 2,2'-azobis (N-methyl-2-methyl propionamide), reference compound] | 1.2 g | low solubility | ≤ 0.5 g | low solubility | – | – | water-soluble | poor soluble | – | – | – | – | – | –
4 | CC(C)(N=NC(C)(C)C(=O)NC1CCCCC1)C(=O)NC1CCCCC1 [Example 1, 2,2'-azobis (N-cyclohexyl-2-methyl propionamide)] | 3.5 g | – | 5.5 g | – | 111.0 | 1.72e-05 | – | – | 8.7 | 20.5 | 30.8 | 41.2 | 62.5 | 81.0
5 | CC(C)CNC(=O)C(C)(C)N=NC(C)(C)C(=O)NCC(C)C [Example 2, 2,2'-azobis [N-(2-methylpropyl)-2-methylpropionamide]] | 14.0 g | – | 8.0 g | – | 112.0 | – | – | – | – | – | – | – | – | –
6 | CCCCNC(=O)C(C)(C)N=NC(C)(C)C(=O)NCCCC [Example 3, 2,2'-azobis (N-butyl-2-methyl propionamide)] | easily soluble | – | easily soluble | – | 110.6 | 1.79e-05 | – | – | 9.2 | 20.8 | 30.8 | 41.0 | 61.2 | 82.9

Continued, in another order:

Row | Solubility in ethyl acetate [2] | Solubility in ethyl acetate [2, 6] | Solubility in toluene [2] | Solubility in toluene [2, 6] | temperature for 10-hour half life [4] [°C] | decomposition rate constant [5] [s⁻¹] | SMILES | solubility in water [1] | solubility in an organic solvent [1] | Conversion ([3]; polymerization time 1 h) [%] | Conversion ([3]; polymerization time 2 h) [%] | Conversion ([3]; polymerization time 3 h) [%] | Conversion ([3]; polymerization time 4 h) [%] | Conversion ([3]; polymerization time 6 h) [%] | Conversion ([3]; polymerization time 8 h) [%]
7 | 11.0 g | – | 5.0 g | – | 111.2 | – | CC(C)NC(=O)C(C)(C)N=NC(C)(C)C(=O)NC(C)C [Example 4, 2,2'-azobis [N-(2-methylethyl)-2-methylpropionamide]] | – | – | – | – | – | – | – | –
8 | easily soluble | – | easily soluble | – | 111.6 | – | CCCCCCNC(=O)C(C)(C)N=NC(C)(C)C(=O)NCCCCCC [Example 5, 2,2'-azobis (N-hexyl-2-methyl propionamide)] | – | – | – | – | – | – | – | –
9 | easily soluble | – | easily soluble | – | 110.8 | 1.74e-05 | CCCNC(=O)C(C)(C)N=NC(C)(C)C(=O)NCCC [Example 6, 2,2'-azobis (N-propyl-2-methyl propionamide)] | – | – | 9.0 | 20.0 | 31.2 | 41.0 | 62.4 | 83.6
10 | 11.0 g | – | 4.0 g | – | 109.6 | – | CCNC(=O)C(C)(C)N=NC(C)(C)C(=O)NCC [Example 7, 2,2'-azobis (N-ethyl-2-methyl propionamide)] | – | – | – | – | – | – | – | –
